The assay concerns the target T1, DRP1 (Homo sapiens, UniProt O00429).
T1 construct: Human DRIP1 (UniProtID: O00429.4, residues 1-699); made in house; host or cells: Escherichia coli BL21 CodonPlus DE3
The assay can be described thus: AlphaLISA assay (His-DRP1 / MiD49-GST interaction). In kind it is binding. The conditions noted are these: His-DRP1 200 nM, MiD49-GST 20 nM, GMP-PNP 100 uM. The protocol: Human DRIP1 (UniProtID: O00429.4, residues 1-699), and human MiD49 (UnitProtIS: Q96C03.1, residues 126-454) was cloned into a pET15b vector as an N-terminal His-tag Fusion. All constructs were transformed in Escherichia coli host strain BL21 CodonPlus DE3. Bacteria was grown in LB media with 100 μg/ml ampicillin and 34 μg/ml chloramphenicol in an orbital shaker at 37° C. until OD600 reached 0.4, at which temperature was reduced to 16° C. Recombinant protein expression was expressed for 18 hr by the addition of IPTG at OD600 of about 0.8. All cultures were spun down and bacterial pellets were used for protein purification.
For His-DRP1, the pellets were resuspended in DRP-buffer A (20 mM Tris, 500 KCl, 1.89 β-ME, pH 8.0) and protease inhibitor cocktail (Roche), followed by cell disruption by sonication (400 W, pulse 3 sec on, 3 sec off, total 20 min). The lysate was centrifuged at 20,000 g and then supernatant applied to a preequilibrated Ni-NTA column with DRP-buffer A. The column was extensively washed with buffer A containing 50 mM imidazole. Purified His-DRP1 was eluted with DRP-buffer A containing 250 mM imidazole and dialyzed overnight at 4° C. (18 kDa cutoff) against DRP-buffer A to remove imidazole. For AlphaLISA, the His tag was retained on DRP1 full-length.
For MiD49-GST, the bacterial pellets were resuspended and sonicated in MID lysis buffer (25 mM Tris-HCl, pH 7.5, 500 mM NaCl, 5% glycerol, 1 mM TCEP, and 0.5% CHAPS). The lysate was pre-cleared at 20,300 g before applying to a glutathione column. Unbound proteins were washed using MID-buffer A (25 mM Tris-HCl, pH 7.5, 300 mM NaCl, 5% glycerol, 1 mM TCEP) and MID-buffer B (25 mM Tris-HCl, pH 7.5, 300 mM NaCl, 5% glycerol, 1 mM TCEP, 1 mM GSH). The protein was eluted with MID-buffer C (25 mM Tris-HCl, pH 7.5, 300 mM NaCl, 5% glycerol, 1 mM TCEP, 10 mM GSH). The target protein was concentrated in the ultra-filtration tube with MW cutoff 30 kDa and further purified by size-exclusion chromatography on a Superdex-200 column (GE Healthcare) in buffer A. Fractions containing MiD49-GST (126-454) were pooled, concentrated, flash-frozen as single-use aliquots in liquid nitrogen and stored at −80° C.
A total of 100 nl of compounds were plated in a 384-well AlphaPlate (PerkinElmer, Waltham, MA) at concentrations 100 uM to […] in DMSO (dilution by 3.165 for 11 concentration levels). Recombinant His-DRP1 (200 nM), MiD49-GST (20 nM), and GMP-PNP (100 uM) were mixed in assay buffer (PBS with 1.5% BSA, 1 mM DTT). Five microliters of the protein mixture were added to the plate and incubate at room temperature for 30 min. Glutathione donor beads and nickel chelate acceptor beads were diluted and mixed in assay buffer to obtain 40 μg/ml of each bead. Five microliters of the mixed beads were added to each well on the microplate leading to a final bead concentration of 20 µg/ml per well. The sealed plate was incubated at room temperature for 60 min and protected from light. The AlphaLISA signal was detected with an EnVision Multilabel Reader (excitation at 680 and emission 615 nm). GraphPad Prism was used to calculate the IC50 by applying sigmoidal dose-response fit (variable slope).
T1 sequence (O00429 1-699 isoform O00429-4): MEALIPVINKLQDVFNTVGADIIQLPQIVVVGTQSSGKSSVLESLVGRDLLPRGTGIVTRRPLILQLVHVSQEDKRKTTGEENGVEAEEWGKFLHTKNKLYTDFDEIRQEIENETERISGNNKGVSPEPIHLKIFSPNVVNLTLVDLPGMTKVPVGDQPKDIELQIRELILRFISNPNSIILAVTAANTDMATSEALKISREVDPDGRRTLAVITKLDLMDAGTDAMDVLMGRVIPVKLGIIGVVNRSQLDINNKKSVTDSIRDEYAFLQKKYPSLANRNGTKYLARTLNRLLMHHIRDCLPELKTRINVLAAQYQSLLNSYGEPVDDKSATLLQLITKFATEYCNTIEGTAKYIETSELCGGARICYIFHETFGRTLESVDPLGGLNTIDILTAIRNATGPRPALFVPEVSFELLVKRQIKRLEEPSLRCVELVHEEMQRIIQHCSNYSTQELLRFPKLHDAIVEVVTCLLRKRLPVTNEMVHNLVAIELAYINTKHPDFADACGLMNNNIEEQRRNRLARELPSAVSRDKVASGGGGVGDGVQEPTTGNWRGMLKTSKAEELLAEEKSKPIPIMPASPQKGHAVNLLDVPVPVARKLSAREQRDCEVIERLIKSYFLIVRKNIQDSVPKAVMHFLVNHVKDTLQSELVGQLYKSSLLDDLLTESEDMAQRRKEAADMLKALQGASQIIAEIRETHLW
For `COCCOc1cc(-c2cncs2)nc2ccc(NC(=O)C(C)COC)cc12` (centres unmarked) [Example 32, 3-methoxy-N-(4-(2-methoxyethoxy)-2-(thiazol-5-yl)quinolin-6-yl)-2-methylpropanamide], the 50% inhibitory concentration (IC50) is 0.5 to 1 µM.

`COCCOc1cc(-c2cncs2)nc2ccc(NC(=O)[C@H]3C[C@@H](OC)C3)cc12` [Example 33, cis-3-methoxy-N-(4-(2-methoxyethoxy)-2-(thiazol-5-yl)quinolin-6-yl)cyclobutane-1-carboxamide] came in with an IC50 of under 0.5 µM.

For the molecule `COCCOc1cc(-c2cncs2)nc2ccc(NC(=O)[C@H]3C[C@H](OC)C3)cc12` [Example 34, trans-3-methoxy-N-(4-(2-methoxyethoxy)-2-(thiazol-5-yl)quinolin-6-yl)cyclobutane-1-carboxamide], the IC50 was over 10 µM.

`COCCOc1cc(-c2cncs2)nc2ccc(NC(=O)c3cnoc3)cc12` [Example 35, N-(4-(2-methoxyethoxy)-2-(thiazol-5-yl)quinolin-6-yl)isoxazole-4-carboxamide] yielded an IC50 of 0.5 to 1 µM.

Turning to `COCCOc1cc(-c2cncs2)nc2ccc(NC(=O)[C@H](C)OC)cc12` [Example 36, (S)-2-methoxy-N-(4-(2-methoxyethoxy)-2-(thiazol-5-yl)quinolin-6-yl)propanamide], the IC50 was under 0.5 µM.

Consider `COCCOc1cc(-c2cncs2)nc2ccc(NC(=O)[C@@H](C)OC)cc12` [Example 37, (R)-2-methoxy-N-(4-(2-methoxyethoxy)-2-(thiazol-5-yl)quinolin-6-yl)propanamide], for which the 50% inhibitory concentration (IC50) was under 0.5 µM.

As to `COCC(C)Oc1cc(-c2cncs2)nc2ccc(NC(=O)C3COC3)cc12` (centres unmarked) [Example 38, N-(4-((1-methoxypropan-2-yl)oxy)-2-(thiazol-5-yl)quinolin-6-yl)oxetane-3-carboxamide], the IC50 is under 0.5 µM.

With `COCC(C)(C)Oc1cc(-c2cncs2)nc2ccc(NC(=O)C3COC3)cc12` [Example 39, N-(4-((1-methoxy-2-methylpropan-2-yl)oxy)-2-(thiazol-5-yl)quinolin-6-yl)oxetane-3-carboxamide], the IC50 was 1 to 10 µM.

Take `COCCOc1cc(-n2cnc(C3CC3)c2)nc2ccc(NC(=O)C3COC3)cc12` [Example 40, N-(2-(4-cyclopropyl-1H-imidazol-1-yl)-4-(2-methoxyethoxy)quinolin-6-yl)oxetane-3-carboxamide]: the IC50 was under 0.5 µM.

On to `COCCOc1cc(-n2cnc(C)c2)nc2ccc(NC(=O)C3COC3)cc12` [Example 41, N-(4-(2-methoxyethoxy)-2-(4-methyl-1H-imidazol-1-yl)quinolin-6-yl)oxetane-3-carboxamide], for which the half-inhibitory concentration (IC50) is under 0.5 µM.

Regarding `O=C(Nc1ccc2nc(-n3ccnc3)cc(OCCO)c2c1)C1COC1` [Example 42, N-(4-(2-hydroxyethoxy)-2-(1H-imidazol-1-yl)quinolin-6-yl)oxetane-3-carboxamide], the IC50 was in the range of 1 to 10 µM.

The molecule `Cc1cn(-c2cc(OC3CC3)c3cc(NC(=O)C4COC4)ccc3n2)cn1` [Example 43, N-(4-cyclopropoxy-2-(4-methyl-1H-imidazol-1-yl)quinolin-6-yl)oxetane-3-carboxamide] yielded a concentration for half-maximal inhibition (IC50) of 1 to 10 µM.

For the molecule `CCOc1cc(-n2cnc(Cl)c2)nc2ccc(NC(=O)C3COC3)cc12` [Example 44, N-(2-(4-chloro-1H-imidazol-1-yl)-4-ethoxyquinolin-6-yl)oxetane-3-carboxamide], the half-maximal inhibitory concentration (IC50) lay within 0.5 to 1 µM.

For `CCOc1cc(-n2cnnc2)nc2ccc(NC(=O)C3COC3)cc12` [Example 45, N-(4-ethoxy-2-(4H-1,2,4-triazol-4-yl)quinolin-6-yl)oxetane-3-carboxamide], the half-maximal inhibitory concentration (IC50) fell in the range of 1 to 10 µM.

`CCOc1cc(-n2cnc(C#N)c2)nc2ccc(NC(=O)C3COC3)cc12` [Example 46, N-(2-(4-cyano-1H-imidazol-1-yl)-4-ethoxyquinolin-6-yl)oxetane-3-carboxamide] gave a half-inhibitory concentration (IC50) of 1 to 10 µM.

`CCOc1cc(-n2cnc(C(C)(C)C)c2)nc2ccc(NC(=O)C3COC3)cc12` [Example 47, N-(2-(4-(tert-butyl)-1H-imidazol-1-yl)-4-ethoxyquinolin-6-yl)oxetane-3-carboxamide] gave an IC50 of over 10 µM.

Regarding `COC[C@H](C)Oc1cc(-c2cncs2)nc2ccc(NC(=O)C(C)C#N)cc12` (stereo partly drawn) [Example 48, 2-cyano-N-(4-(((S)-1-methoxypropan-2-yl)oxy)-2-(thiazol-5-yl)quinolin-6-yl)propanamide], the IC50 was in the range of 0.5 to 1 µM.

For the molecule `COC[C@@H](C)Oc1cc(-c2cncs2)nc2ccc(NC(=O)C(C)C#N)cc12` (stereo partly drawn) [Example 49, 2-cyano-N-(4-(((R)-1-methoxypropan-2-yl)oxy)-2-(thiazol-5-yl)quinolin-6-yl)propanamide], the IC50 was 1 to 10 µM.

Turning to `COC[C@H](C)Oc1cc(-c2cncs2)nc2ccc(NC(=O)[C@H](C)OC)cc12` [Example 50, (S)-2-methoxy-N-(4-(((S)-1-methoxypropan-2-yl)oxy)-2-(thiazol-5-yl)quinolin-6-yl)propanamide], the IC50 is 1 to 10 µM.

Molecule `COC[C@@H](C)Oc1cc(-c2cncs2)nc2ccc(NC(=O)[C@H](C)OC)cc12` [Example 51, (S)-2-methoxy-N-(4-(((R)-1-methoxypropan-2-yl)oxy)-2-(thiazol-5-yl)quinolin-6-yl)propanamide] displayed an IC50 of over 10 µM.

In turn, `COC[C@@H](C)Oc1cc(-c2cncs2)nc2ccc(NC(=O)C3COC3)cc12` [Example 52, (R)—N-(4-((1-methoxypropan-2-yl)oxy)-2-(thiazol-5-yl)quinolin-6-yl)oxetane-3-carboxamide] came in with an IC50 of 1 to 10 µM.

With `COCCOc1cc(-c2cnn(C)c2)nc2ccc(NC(=O)C3COC3)cc12` [Example 53, N-(4-(2-methoxyethoxy)-2-(1-methyl-1H-pyrazol-4-yl)quinolin-6-yl)oxetane-3-carboxamide], the IC50 was 0.5 to 1 µM.

Consider `CCOc1cc(-n2cnc(C)c2)nc2c(C)cc(NC(=O)C3COC3)cc12` [Example 54, N-(4-ethoxy-8-methyl-2-(4-methyl-1H-imidazol-1-yl)quinolin-6-yl)oxetane-3-carboxamide], for which the IC50 was 1 to 10 µM.

The IC50 is the concentration at which inhibition is half-maximal. Lower therefore signals inhibition by little substance.

The values above are taken from patent US20260125372A1, “DYNAMIN-1-LIKE PROTEIN INHIBITORS AND USES THEREOF” (Astellas Engineered Small Molecules US, Incorporated, priority 2022, published 2026).
